Structures can show the parent of a compound that is named as a salt.
Experiments:
[1] = tested on: leukotriene pathway in human whole blood (LTB4 levels); test: Human whole blood assay (LTB4); assay type: cell-based; details: human whole blood diluted 1:1 in RPMI, stimulated with calcium ionophore A23187; single replicate
How it was run: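 Compounds are pre-incubated 15 min at 37° Celsius in RPMI-diluted (1:1) heparinised whole blood before a 30 min A23187 stimulus (7 μg/mL). Plasma LTB4 is read by immunoassay kit, with IC50 calculated from a 4-parameter equation.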

human FLAP = human FLAP (Homo sapiens (Human), UniProt P20292); test: FLAP binding assay (HTRF); details: human FLAP-containing membranes, HTRF format; average of two assay plates, duplicates; read-out: FLAP Binding wild type HTRF Ki
How it was run: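 HTRF ratio read-out; two independent plates, samples in duplicate on each, values averaged across plates.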

Chain of human FLAP (P20292 whole entry): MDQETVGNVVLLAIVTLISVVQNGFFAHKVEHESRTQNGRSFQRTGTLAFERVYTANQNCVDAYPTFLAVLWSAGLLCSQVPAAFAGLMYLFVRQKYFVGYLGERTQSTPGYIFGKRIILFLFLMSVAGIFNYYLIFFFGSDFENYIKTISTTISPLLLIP

Compound	IC50 [1] [nM]	Ki (human FLAP) [nM]
CS(=O)(=O)c1ccc(Oc2c(C3CCC3)ccc(-c3cnc(N)cn3)c2F)cc1C(F)(F)F [Example 133, 5-{4-Cyclobutyl-2-fluoro-3-[4-(methylsulfonyl)-3-(trifluoro-methyl)phenoxy]phenyl}pyrazin-2-amine]	79.6	10.2
CN(C)c1cc(Oc2c(C3CCC3)ccc(-c3cnc(N)cn3)c2F)nc(C(F)(F)F)n1 [Example 139, 6-[3-(5-Aminopyrazin-2-yl)-6-cyclobutyl-2-fluorophenoxy]-N,N-dimethyl-2-(trifluoromethyl)pyrimidin-4-amine]	48.5	3.9
Cc1nc(N)cc(Oc2c(C3CCC3)ccc(-c3cnc(N)cn3)c2F)n1 [Example 140, 6-[3-(5-Aminopyrazin-2-yl)-6-cyclobutyl-2-fluorophenoxy]-2-methylpyrimidin-4-amine trifluoroacetate salt]	11.7	1.3
COCc1cc(Oc2c(C3CCC3)ccc(-c3cnc(N)cn3)c2F)nc(N)n1 [Example 142, 4-[3-(5-Aminopyrazin-2-yl)-6-cyclobutyl-2-fluorophenoxy]-6-(methoxymethyl)pyrimidin-2-amine]	18.5	1.7
Nc1cnc(-c2ccc(C3CCC3)c(Oc3cc(Cl)nc(N)n3)c2F)cn1 [Example 143, 4-[3-(5-Aminopyrazin-2-yl)-6-cyclobutyl-2-fluorophenoxy]-6-chloropyrimidin-2-amine]	37.7	2.9
Nc1cnc(-c2ccc(C3CCC3)c(Oc3ccnc(-c4ccccc4)n3)c2F)cn1 [Example 144, 5-{4-Cyclobutyl-2-fluoro-3-[(2-phenylpyrimidin-4-yl)oxy]phenyl}pyrazin-2-amine]	22.3	1.1
Nc1cnc(-c2ccc(C3CCC3)c(Oc3cc(N)nc(Cc4ccccc4)n3)c2F)cn1 [Example 146, 6-[3-(5-Aminopyrazin-2-yl)-6-cyclobutyl-2-fluorophenoxy]-2-benzylpyrimidin-4-amine]	4.5	0.4

The remaining lines, values ahead:

IC50 [1] [nM]	Ki (human FLAP) [nM]	Compound
39.7	6.2	Cc1nccc(Oc2c(C3CCC3)ccc(-c3cnc(N)cn3)c2F)n1 [Example 134, 5-{4-Cyclobutyl-2-fluoro-3-[(2-methylpyrimidin-4-yl)oxy]phenyl}pyrazin-2-amine]
45.9	3.5	Nc1cnc(-c2ccc(C3CCC3)c(Oc3cc(N)ncn3)c2F)cn1 [Example 136, 6-[3-(5-Aminopyrazin-2-yl)-6-cyclobutyl-2-fluorophenoxy]pyrimidin-4-amine]
51	3.7	Nc1cnc(-c2ccc(C3CCC3)c(Oc3ccnc(Cl)n3)c2F)cn1 [Example 137, 5-{3-[(2-Chloropyrimidin-4-yl)oxy]-4-cyclobutyl-2-fluorophenyl}pyrazin-2-amine]
70.3	5.5	Nc1cnc(-c2ccc(C3CCC3)c(Oc3cc(N4CCC4)ncn3)c2F)cn1 [Example 138, 5-{3-[(6-Azetidin-1-ylpyrimidin-4-yl)oxy]-4-cyclobutyl-2-fluorophenyl}pyrazin-2-amine trifluoroacetate salt]
58.6	5	Nc1cnc(-c2ccc(C3CCC3)c(Oc3cc(C4CC4)ncn3)c2F)cn1 [Example 141, 5-{4-Cyclobutyl-3-[(6-cyclopropylpyrimidin-4-yl)oxy]-2-fluorophenyl}pyrazin-2-amine]
177	5.4	Nc1cnc(-c2ccc(C3CCC3)c(Oc3cc(-c4ccccc4)ncn3)c2F)cn1 [Example 145, 5-{4-Cyclobutyl-2-fluoro-3-[(6-phenylpyrimidin-4-yl)oxy]phenyl}pyrazin-2-amine]
185	6.4	CC(C)c1cc(Oc2c(C3CCC3)ccc(-c3cnc(N)cn3)c2F)ncn1 [Example 147, 5-(4-Cyclobutyl-2-fluoro-3-{[6-(1-methylethyl)pyrimidin-4-yl]oxy}phenyl)pyrazin-2-amine]
